The results in this text go back to US5236955A, “Anti-fungal agent” (Washington University, priority 1992, dated 1993).

For assay [1], the target named is T1, C. albicans NMT (Candida albicans, UniProt P30418).
T1 construct: made in house; host or cells: E. coli
As to the kind of experiment: In vitro discontinuous NMT assay. As to conditions: 40 μM fatty acid, HIV-1 Pr55gag octapeptide. The class given is biochemical. As for the experimental part:
(§1) Details of the single point, discontinuous, in vitro NMT assay are described in Examples, below. A tritiated octapeptide derived from residues 2-9 of […] HIV-I Pr55^gag (GARA[^3 H]SVLS-NH2) was used in all assays. The amount of analogpeptide produced is expressed as a percentage of myristoylpeptide generated in a control incubation. All assays were performed in triplicate. The mean ±1 standard deviation is shown. Under the assay conditions employed, the amount of myristoylpeptide generated by purified E. coli-derived S. cerevisiae NMT ranged from 5×10^5 to 2×10^6 pmol/mg enzyme/min while the amount of myristolypeptide produced by purified E. coli-derived, C. albicans NMT ranged from 4×10^5 to 1.5×10^6 pmol/mg enzyme/mni.
(§2) In vitro discontinuous NMT assay--This assay was carried out by conventional procedures as described by Duronio et al., Methods: A Companion to Methods in Enzymol. 1, 253-263 (1990); Kishore et al., J. Biol. Chem. 266, 8835-8853 (1991). Briefly, a single point assay was performed by first converting myristic acid or a fatty acid analog (final concentration=40 μM) to its CoA thioester using Pseudomonas acylCoA synthetase (EC 6.2.1.3, Sigma Chemical Co.). Following a 25 min incubation at 30° C., purified E. coli derived S. cerevisiae or C. albicans NMT [Rudnick et al., Ibid. 265, 13370-13378 (1990); Wiegand et al., J. Biol. Chem. 267, 8591-8598 (1992)], final concentration=0.1 μg/ml, was added to the reaction mixture together with a tritiated peptide substrate derived from residues 2-9 of the HIV-1 Pr55^gag (Gly-Ala-Arg-[^3 H]Ala-Ser-Val-Leu-Ser-NH2) [Kishore et al., supra (1991); specific activity=1.2 Ci/mmol; final concentration=23 μM]. After an additional 10 min incubation at 30° C., the enzymatically generated, radiolabeled acylpeptide was purified by reverse phase HPLC and quantitated using an in-line scintillation counter [Kishore et al., supra, (1991)]. The amount of analogpeptide formed was expressed as a percentage of the amount of myristoylpeptide formed in a parallel reference assay. All assays were performed in duplicate or triplicate.
(§3) In vitro studies of purified S. cerevisiae and C. albicans NMT reveal differences in the kinetic properties of oxatetradecanoic and oxatridecanoic acid analogs--To begin to understand the mechanism which underlies the fungicidal activities of some but not all of the oxygen containing fatty acid analogs, the relative activities of the sixteen oxatri-, oxatetradecanoic acids and dioxatetradecanoic acids were examined in an in vitro assay. The two step assay measures NMT-dependent transfer of the acyl chain from an enzymatically generated acylCoA to a radiolabeled peptide substrate. […]

In assay [2] the target is T2, S. cerevisiae NMT (Saccharomyces cerevisiae, UniProt P14743).
T2 construct: made in house; host or cells: E. coli
The assay can be described thus: In vitro discontinuous NMT assay. The class given is biochemical. As to conditions: 40 μM fatty acid, HIV-1 Pr55gag octapeptide. The procedure: as §1, §2, §3

Assay [3] concerns C. neoformans. The assay can be described thus: Viability of C. neoformans (viable cells relative to EtOH control culture). The assay is classed as cell-based, Cryptococcus neoformans. The following applies: for fungicidal / fungistatic effect on C. neoformans: screening assay; for log reduction at 300 µM: relative to 0.1% EtOH control, read-out: decrease in viable cells (converted); for attenuation of fungicidal activity on shortening by one methylene: versus corresponding oxatetradecanoic acid, 300 μM. The procedure:
(§4) Panel A, survey of the effects of several oxatetradecanoic acids on the growth of C. neoformans. A culture of C. neoformans was grown at 30° C. in SAB media to midlog phase (A600 ~0.5). A single dose of fatty acid was then added to subcultures (final concentration=300 μM). EtOH(0.1%) was used as a negative control. Amphotericin B (AmB) was added (final concentraton=55 μM) as a positive control. Aliquots were withdrawn from the subcultures 0, 0.5, 2, 4, 7, 21, and 24 h after these additions and then absorbance at 600 nm was measured. All assays were done in duplicate or triplicate. A representative test is shown. Panel B, survey of the effects of oxatetradecanoic acids, dioxatetradecanoic acids and oxatridecanoic acids on the viability of C. neoformans. Fatty acid analog was added to the cultures as in Panel A. Aliquots were withdrawn 0.5, 2, 4, 7 or 8, and 24 h later and plated on SAB-agar at various dilutions to determine the number of viable organisms/ml culture. All assays were done in duplicate. Data from a representative test are expressed as the ratio of viable cells in treated cultures relative to a control culture that received 0.1% EtOH. A positive control culture received a single dose of amphotericin B (55 μM); Panel C, dose-dependent reduction in the viability of C. neoformans after addition of 4-oxatetradecanoic acid (O4) to cultures during log-phase growth at 30° C. in SAB. A single dose of the analog was given at T=0 h in the amount indicated and aliquots of the culture were withdrawn at various times to determine the number of viable cells. All assays were done in triplicate. A representative test is shown.
(§5) Saccharomyces cerevisiae strain YM2061 (MATa ura3-52 his3Δ200 ade2-101 lys2-801 met LEU2::pRY181 can1; Flick and Johnston, Mol. Cell. Biol. 10, 4757-4769 (1990), Candida albicans strain B311 (obtained from the American Type Tissue Culture, Rockville, Md.), or Cryptococcus neoformans strain L210425 (a clinical isolate that is part of the permanent culture collection of the Mycology Laboratory, Barnes Hospital, St. Louis, Mo.) were grown overnight at 30 C. The S. cerevisiae strain was incubated in YPD medium (1% bacto-yeast extract, Gibco, Long Island, N.Y.), 2% bacto-peptone (Gibco), 2% dextrose). The C. albicans and C. neoformans strains were grown in Sabouraud's media (SAB; 2% (w/v) dextrose, 1% bacto-peptone). The following morning the cultures were diluted into fresh medium to the desired density at 600 nm (early log phase), and subsequently incubated in a rotary shaker at 30° C. until an A600 =0.5 (mid log phase) was achieved. The culture was then divided into 10 ml aliquots. A single 10 μl aliquot of a stock solution of fatty acid analog (prepared in various concentrations using absolute ethanol) was added to the culture so that the final concentration of the compound was 100-500 μM (T=0). Ten microliters of ethanol alone was added to one 10 ml culture which served as the negative control. Amphotericin B (AmB; in the form of Fungizone, Squibb) was added (final concentration=55 μM) to another culture which served as the positive control. At T=0 and 0.5-24 h after addition of fatty acid analog to the subcultures, an aliquot was removed for determining the density of the subculture at 600 nm. Cell viability was determined at each of these time points by (i) serially diluting the aliquot in 0.15M NaCl and counting cell number in a hemocytometer and (ii) plating 2-3 of the dilutions in triplicate onto plates of SAB/agar (C. albicans and C. neoformans) or YPD/agar (S. cerevisiae). These plates were subsequently incubated at 30° C. for 24-48 hr to allow for the growth of colonies. The data were expressed as the ratio of viable cells/ml in the fatty acid analog treated subculture to the number of viable cells/ml in the negative (ethanol) control culture.

In assay [4] the test system is C. neoformans. The assay can be described thus: Growth of C. neoformans cultures (absorbance at 600 nm). The assay is classed as cell-based, Cryptococcus neoformans. The procedure: as §4
as §5, with “Amphotericin B (AmB; in the form of Fungizone, Squibb) was added (final concentration=55 μM) to another culture which served as the positive control. At T=0 and 0.5-24 h after addition of fatty acid analog to the subcultures, an aliquot was removed for determining the density of the subculture at 600 nm.” left out, “These plates were subsequently incubated at 30° C. for 24-48 hr to allow for the growth of colonies.” left out, “culture. […]” for “culture.”

Assay [5] has as its system C. albicans. As to the kind of experiment: Viability of C. albicans. The class given is cell-based. The following applies: Candida albicans. The procedure:
(§6) Oxatetradecanoic acids were added (final concentraton=25-500 μM) as a single dose to log phase cultures of C. alibcans grown in SAB at 30° C. (Panels A and B) and to log phase cultures of S. cerevisiae grown in YPD at 30° C. (Panels C and D). The results were compared to the number of viable organisms present in cultures treated with 0.1% EtOH alone. […] A single does of alphotericin B (final concentration=55 μM) was added to parallel cultures which served as positive controls. Assays were done in duplicate. Representative tests are shown.
as §5

Assay [6] relates to S. cerevisiae. The assay can be described thus: Viability of S. cerevisiae. As to conditions: Saccharomyces cerevisiae. The class given is cell-based. The procedure: as §6, §5
Where [7] appears, read: Cryptococcus neoformans, 300 μM single dose.

T1 sequence (P30418 whole entry): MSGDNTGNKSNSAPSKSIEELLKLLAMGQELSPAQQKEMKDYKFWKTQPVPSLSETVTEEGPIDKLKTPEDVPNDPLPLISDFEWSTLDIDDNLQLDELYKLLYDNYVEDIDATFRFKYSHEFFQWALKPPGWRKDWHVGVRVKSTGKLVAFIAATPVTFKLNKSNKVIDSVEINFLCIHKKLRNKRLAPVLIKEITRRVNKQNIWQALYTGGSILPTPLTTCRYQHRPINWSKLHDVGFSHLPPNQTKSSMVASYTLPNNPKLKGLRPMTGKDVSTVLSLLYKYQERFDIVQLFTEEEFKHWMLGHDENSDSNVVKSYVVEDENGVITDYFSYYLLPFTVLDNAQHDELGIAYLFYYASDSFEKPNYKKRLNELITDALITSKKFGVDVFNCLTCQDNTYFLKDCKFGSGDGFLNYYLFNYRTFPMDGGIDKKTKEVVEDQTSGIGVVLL
T2 sequence (P14743 whole entry): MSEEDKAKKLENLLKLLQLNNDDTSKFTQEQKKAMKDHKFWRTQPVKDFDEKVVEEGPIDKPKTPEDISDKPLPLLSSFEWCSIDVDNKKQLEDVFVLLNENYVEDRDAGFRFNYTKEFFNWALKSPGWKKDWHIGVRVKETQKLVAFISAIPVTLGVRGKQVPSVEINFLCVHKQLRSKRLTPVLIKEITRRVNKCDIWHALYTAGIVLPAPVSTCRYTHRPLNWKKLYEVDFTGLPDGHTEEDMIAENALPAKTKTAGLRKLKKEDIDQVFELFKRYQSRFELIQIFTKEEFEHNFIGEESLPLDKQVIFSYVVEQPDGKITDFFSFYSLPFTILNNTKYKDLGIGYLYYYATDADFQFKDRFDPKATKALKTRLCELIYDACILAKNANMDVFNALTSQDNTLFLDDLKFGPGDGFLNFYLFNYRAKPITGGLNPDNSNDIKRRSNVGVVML

Regarding `CCCCCCCCCCCOCC(=O)SCCNC(=O)CCNC(=O)[C@H](O)C(C)(C)COP(=O)(O)OP(=O)(O)OC[C@H]1O[C@@H](n2cnc3c(N)ncnc32)[C@H](O)[C@@H]1OP(=O)(O)O` [3-oxatetradecanoylCoA], the “activity of analogCoA relative to myristoylCoA” value in assay [1] and in assay [2] was “equivalent to myristate” throughout.
In the case of `COCCCCCCCCOCCC(=O)O` [4,13 dioxatetradecanoic acid, 4,13-Dioxatetradecanoic acid], the “fungicidal / fungistatic effect on C. neoformans” value (“fungicidal / fungistatic effect” for short) in assay [3] (300 μM single dose) is given as “did not convert O13 to an active analog”.
Regarding `CCCCCCCCCCOCCC(=O)SCCNC(=O)CCNC(=O)[C@H](O)C(C)(C)COP(=O)(O)OP(=O)(O)OC[C@H]1O[C@@H](n2cnc3c(N)ncnc32)[C@H](O)[C@@H]1OP(=O)(O)O` [4-oxatetradecanoylCoA], the “activity of analogCoA relative to myristoylCoA” value in assay [1] and in assay [2] was -3 fold in each case.
Take `CCCCCCCCCOCCC(=O)O` [4-oxatridecanoic acid, 4-Oxatridecanoic acid]: in assay [3] (300 μM single dose), the “time needed to produce the decrease in viable cells” value was 6 to 7 h. Also, the log reduction at 300 µM in assay [3] (setting [7]) was 3. Besides, the “attenuation of fungicidal activity on shortening by one methylene” value in assay [3] was found to be 10 fold.
Take `COCCCCCCCOCCCC(=O)O` [5,13 dioxatetradecanoic acid, 5,13-Dioxatetradecanoic acid]: in assay [3] (300 μM single dose), the “fungicidal / fungistatic effect” value is “did not convert O13 to an active analog”.
For the compound `CCCCCCCCOCCCC(=O)O` [5-oxatridecanoic acid, 5-Oxatridecanoic acid], in assay [3] (300 μM single dose), the “fungicidal / fungistatic effect” value is “not active”. Also, in assay [3], the “attenuation of fungicidal activity on shortening by one methylene” value is given as 10 fold.
Take `C[C@@H]1[C@H](O)[C@@H](C)/C=C/C=C/C=C/C=C/C=C/C=C/C=C/[C@H](O[C@@H]2O[C@H](C)[C@@H](O)[C@H](N)[C@@H]2O)C[C@@H]2O[C@](O)(C[C@@H](O)C[C@@H](O)[C@H](O)CC[C@@H](O)C[C@@H](O)CC(=O)O[C@H]1C)C[C@H](O)[C@H]2C(=O)O` [Amphotericin B, reference compound]: the “effect on growth of C. neoformans, as determined by optical density” value in assay [4] (55 μM, positive control) is “growth arrest”. In addition, the log reduction at 55 µM in assay [3] (Cryptococcus neoformans, read-out: reduction in viable cell number) turned out to be 6.
Turning to `CCCCCCCCCOCCCC(=O)O` [O5, 5-oxatetradecanoic acid], in assay [3] (300 μM single dose), the “fungicidal / fungistatic effect” value is listed as “fungicidal”. The log reduction at 300 µM in assay [3] (setting [7]) is 3; in assay [5] (300 μM, 2 hr after addition, read-out: reductions in the number of viable C. albicans) it was < 0.699; in assay [6] (300 μM, 2 hr after addition, read-out: reductions in the number of viable S. cerevisiae), < 0.699. For the same compound, the log reduction at 500 µM in assay [5] (500 μM, read-out: reduction in the number of viable organisms (C. albicans)) fell in the range of 1 to 2; in assay [6] (500 μM, read-out: reduction in the number of viable organisms (S. cerevisiae)) it was 1 to 2.
For the compound `CCCCCCCOCCCCCC(=O)O` [O7], the “fungicidal / fungistatic effect” value in assay [3] (300 μM single dose) was “no measurable effect on the growth”.
Take `CCCCCCOCCCCCCC(=O)O` [O8]: the “fungicidal / fungistatic effect” value in assay [3] (300 μM single dose) is given as “no measurable effect on the growth”.
Regarding `CCCCOCCCCCCCCC(=O)O` [O10], in assay [3] (300 μM single dose), the “fungicidal / fungistatic effect” value is reported as “no measurable effect on the growth”.
In the case of `CCCOCCCCCCCCCC(=O)O` [O11, 11-Oxatetradecanoic acid], the “effect on growth of C. neoformans, as determined by optical density” value in assay [4] (single 300 μM dose, exponential phase, 30° C., SAB, up to 24 h) is given as “virtually no effect on growth”. In assay [3] (300 μM single dose), the “fungicidal / fungistatic effect” value is on record as “no measurable effect on the growth”.
Take `CCOCCCCCCCCCCC(=O)O` [O12]: the “fungicidal / fungistatic effect” value in assay [3] (300 μM single dose) is given as “no measurable effect on the growth”.
